Source: US20030232868A1, “Cyclic carboxylic acids as integrin antagonists” (priority 2000, published 2003)
Where two headings read alike, the source gives them in different places.

Assays:
[1] = system: adhesion of Ramos cells to VCAM-1; test: Adhesion of Ramos cells to immobilized VCAM-1 (domains 1-3) (Ramos—VCAM-1 assay); type: cell-based; conditions: Homo sapiens
Excerpt: In Vitro Assay: Adhesion of Jurkat/Ramos Cells to Immobilized VCAM-1 (Domains 1-3)
Preparation of VCAM-1 (Extracellular Domains 1-3)
Complementary DNA (cDNA) encoding 7 domain form of VCAM-1 (GenBank accession #M60335) was obtained using Rapid-Screen™ cDNA library panels (OriGene Technologies, Inc) at Takara Gene Analysis Center (Shiga, Japan). The primers used were 5′-CCAAGGCAGAGTACGCAAAC-3′ (sense) and 5′-TGGCAGGTATTATTAAGGAG-3′ (antisense). PCR amplification of the 3 domain VCAM-1 cDNA was perform using Pfu DNA polymerase (Stratagene) with the following sets of primers: (U-VCAMd1-3) 5′-CCATATGGTACCTGATCAATTTAAAATCGAGACCACCCCAGAA-3′; (L-VCAMd1-3) 5′-CCATATAGCAATCCTAGGTCCAGGGGAGATCTCAACAGTAAA-3′. PCR cycle was 94° C. for 45 sec. 55° C. for 45 sec, 72° C. for 2 min, repeating 15 cycles. After the purification of the PCR product, the fragment was digested with KpnI-AvrII. The digested fragment was ligated into pBluescript IISK(−) (Strategene), which was linearized by digesting with KpnI-XhoI. The ligation was followed by transformation to a Dam/Dcm methylase-free E. coli strain SCS110 (Strategene) to create the donor plasmid pHH7. To direct VCAM-1 molecule into the insect cell secretory pathway, the VCAM-1 coding sequence was fused to signal peptide sequence of honeybee melittin. The resulting melittin-VCAM fusion was placed in correct orientation to the baculovirus polyhedrin promoter. Baculovirus transfer vector containing first 3-domain form VCAM-1 (pH 10) was constructed by ligation of 0.9 kb fragment from AvrII/Klenow/BclI digests of pH 7 into SalI/Klenow/BamHI digests of pMelBacB Invitrogen). Recombinant baculovirus was generated by using Bac-N-Blue™ Transfection kit (Invitrogen) according to the manufacture's instruction. The recombinant virus was amplified by infection to High-Five™ insect cells for 5-6 days, and virus titer was determined by plaque assay.
High-Five™ insect cells were pelleted in a 225 ml conical tube by centrifugation at 1000 rpm for 5 min. After discarding the supernatant, the pellet was resuspended in 1.5×10^9 pfu (MOI=5) of high-titer virus solution, followed by incubation for 1.5 hours at room temperature. The cells were pelleted again and washed once in fresh Express Five™ serum free medium. The cells were pelleted again and finally, resuspended in 200 ml of fresh Express Five TM medium, transferred to a 1,000 ml shaker flask, and incubated in a shaker at 27° C., 130 rpm, for 48 hours before the culture supernatant was collected. The purification of 3-domain form of VCAM-1 from the culture supernatant was performed by one-step anion exchange chromatography. Protein concentration was determined by using Coomassie protein assay reagent (Pierce) according to the manufacture's instruction.
Preparation of VCAM-1 Coated Microtiter Plates
Recombinant human VCAM-1 (extracellular domains 1-3) was dissolved at 1.0 μg/1 ml in PBS. Each well of the microtiter plates (Nalge Nunc International, Fluoro-nunc Cert, 437958) was coated with 100 μl of substrate or for background control with buffer alone for 15 hours at 4 C. After discarding the substrate solution, the wells were blocked using 150 μl per well of block solution Kirkegaard Perry Laboratories, 50-61-01) for 90 minutes. The plate was washed with wash buffer containing 24 mM Tris-HCl (pH 7.4), 137 mM NaCl, […] and 2 MM MnCl2 just before addition of the assay.
In Vitro Assay using Ramos Cells
Preparation of Fluorescence Labeled Ramos Cells:
Ramos cells (American Type Culture Collection, Clone CRL-1596) were cultured in RPMI 1640 medium (Nikken Bio Medical Laboratory, CM1101) supplemented with 10% fetal bovine serum (Hyclone, A-1119-L), 100 U/ml penicilin (Gibco BRL, 15140-122) and 100 μg/ml streptomycin (Gibco BRL, 15140-122) in a humidified incubator at 37° C. with 5% CO2. […]

IC50 ([1]; Cell Type Ramos, adhesion to VCAM-1 coated plates, 1 hour at 37 C, IC50 value ranges, read-out: IC50) | melting point | IC50 ([1]; Ramos, 1 h) | SMILES
< 500 nM | 168 to 169 °C |  | Cc1ccccc1NC(=O)Nc1ccc(CC(=O)N[C@@H](CCCCN)C(=O)Nc2ccc(C(=O)O)cc2)cc1.O=C(O)C(F)(F)F [Example 58]
 | 210 to 218 °C | < 500 nM | COCCCN(CC(=O)Nc1ccc(C(=O)O)cc1)C(=O)Cc1ccc(NC(=O)Nc2ccccc2C)cc1 [Example 59]
